# Patent US20150239889A1, “PYRAZOLOPYRIMIDINE COMPOUND” (MITSUBISHI TANABE PHARMA CORPORATION, priority 2012, published 2015)
# Key:
# human HIF-PHD3 = target: T1, human HIF-PHD3 (Homo sapiens, UniProt Q9H6Z9); assay: HIF-PHD inhibition assay (fluorescence polarization), human HIF-PHD3; format: biochemical; details: 2-oxoglutaric acid 166 μmol/L
# T1 construct: purchased CrystalGenomics Ltd
# Experimental: (§1) The activity of the test compound to inhibit human HIF-PHD2 and human HIF-PHD3 was determined.
# (§2) The value of enzyme activity was calculated by subtracting the value of fluorescence polarization before addition of the enzyme from the value of fluorescence polarization after addition of enzyme (mP value).
# (§3) FAM: 5′-fluoresceinamide ACA: aminocaproic acid
# human HIF-PHD2 = target: T2, human HIF-PHD2 (Homo sapiens, UniProt Q9GZT9); assay: HIF-PHD inhibition assay (fluorescence polarization), human HIF-PHD2; format: biochemical; details: 2-oxoglutaric acid 3.33 μmol/L
# T2 construct: purchased CrystalGenomics Ltd
# T2 sequence (Q9GZT9 2-426 limits assumed): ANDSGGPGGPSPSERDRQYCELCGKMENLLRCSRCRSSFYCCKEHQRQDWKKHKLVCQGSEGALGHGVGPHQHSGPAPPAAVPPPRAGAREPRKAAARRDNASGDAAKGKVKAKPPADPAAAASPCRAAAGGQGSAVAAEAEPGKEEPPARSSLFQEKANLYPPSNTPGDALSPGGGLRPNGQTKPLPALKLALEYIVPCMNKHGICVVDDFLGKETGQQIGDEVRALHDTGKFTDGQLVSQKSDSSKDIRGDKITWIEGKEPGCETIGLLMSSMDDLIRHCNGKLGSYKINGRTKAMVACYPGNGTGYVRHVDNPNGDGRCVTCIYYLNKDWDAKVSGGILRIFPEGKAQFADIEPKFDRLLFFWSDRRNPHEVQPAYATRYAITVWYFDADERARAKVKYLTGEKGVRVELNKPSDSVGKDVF
# Experimental: as §1, §2, §3
# T1 sequence (Q9H6Z9 whole entry): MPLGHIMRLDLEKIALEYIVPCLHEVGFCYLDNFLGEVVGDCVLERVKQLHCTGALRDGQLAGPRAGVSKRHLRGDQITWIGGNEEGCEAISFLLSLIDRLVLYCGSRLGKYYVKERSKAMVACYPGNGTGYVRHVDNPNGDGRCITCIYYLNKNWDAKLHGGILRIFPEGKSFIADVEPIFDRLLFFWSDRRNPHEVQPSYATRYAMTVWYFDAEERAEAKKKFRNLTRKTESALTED
SMILES,IC50 (human HIF-PHD3) [nM],IC50 (human HIF-PHD2) [nM]
C[C@H](c1cc(F)cc(C(F)(F)F)c1)n1ncc2nc(-n3cc(C(=O)O)cn3)nc(O)c21 [Example 273],520,92
CC(c1cc(F)cc(Cl)c1)n1ncc2nc(-n3cc(C(=O)O)cn3)nc(O)c21 (stereo not shown) [Example 305],590,59
O=C(O)c1cnn(-c2nc(O)c3c(n2)c(Cl)nn3CC2CCCC2)c1 [Example 221],670,44
O=C(O)c1cnn(-c2nc(O)c3c(cnn3Cc3ccc(-c4ccc(F)cc4F)cc3F)n2)c1 [Example 82],130,32
Cc1cc(F)cc(C(C)n2ncc3nc(-n4cc(C(=O)O)cn4)nc(O)c32)c1 (stereo not shown) [Example 299],700,79
C[C@@H](c1ccccc1Cl)n1ncc2nc(-n3cc(C(=O)O)cn3)nc(O)c21 [Example 257],870,200
"CCC(c1ccc(F)c(F)c1)n1ncc2nc(-n3cc(C(=O)O)cn3)nc(O)c21 (single isomer, unassigned) [Example 331]",420,19
O=C(O)c1cnn(-c2nc(O)c3c(n2)c(F)nn3CC2CCCCCC2)c1 [Example 464],440,17
CCC1CCCC(n2ncc3nc(-n4cc(C(=O)O)cn4)nc(O)c32)C1 (stereo not shown) [Example 413],680,42
CCC(c1ccc(Cl)cc1)n1ncc2nc(-n3cc(C(=O)O)cn3)nc(O)c21 (stereo not shown) [Example 322],180,48
C[C@H](C1CCCCC1)n1nc(F)c2nc(-n3cc(C(=O)O)cn3)nc(O)c21 [Example 469],1200,76
COc1ccc([C@H](C)n2ncc3nc(-n4cc(C(=O)O)cn4)nc(O)c32)cc1 [Example 260],950,48
C[C@@H](c1cc(F)cc(C(F)(F)F)c1)n1ncc2nc(-n3cc(C(=O)O)cn3)nc(O)c21 [Example 274],380,38
Cc1ccc(F)cc1[C@H](C)n1ncc2nc(-n3cc(C(=O)O)cn3)nc(O)c21 [Example 287],840,48
"Cc1cc(C)cc(C(C)n2ncc3nc(-n4cc(C(=O)O)cn4)nc(O)c32)c1 (single isomer, unassigned) [Example 310]",470,57
CCC(CC)Cn1ncc2nc(-n3cc(C(=O)O)cn3)nc(O)c21 [Example 494],870,89
"CC(c1cc(Cl)cc(Cl)c1)n1ncc2nc(-n3cc(C(=O)O)cn3)nc(O)c21 (single isomer, unassigned) [Example 308]",510,54
C[C@@H](c1ccc(F)cc1)n1nc(C2CC2)c2nc(-n3cc(C(=O)O)cn3)nc(O)c21 [Example 457],710,110
CC(c1ccc(N2CCC(F)CC2)cc1)n1ncc2nc(-n3cc(C(=O)O)cn3)nc(O)c21 (racemic) [Example 424],480,44
Cc1c(OCCCn2ncc3nc(-n4cc(C(=O)O)cn4)nc(O)c32)ccc2c1CCCC2 [Example 190],260,14
CCC(c1cc(F)cc(F)c1)n1ncc2nc(-n3cc(C(=O)O)cn3)nc(O)c21 (stereo not shown) [Example 332],550,45
C[C@@H](C1CCN(c2ccc(Cl)cc2)CC1)n1ncc2nc(-n3cc(C(=O)O)cn3)nc(O)c21 [Example 432],270,17

SMILES,IC50 (human HIF-PHD3) [nM],IC50 (human HIF-PHD2) [nM]
CC[C@@H](c1ccc(Cl)c(Cl)c1)n1ncc2nc(-n3cc(C(=O)O)cn3)nc(O)c21 [Example 336],170,23
CC(C)(C)[C@H]1CC[C@@H](n2ncc3nc(-n4cc(C(=O)O)cn4)nc(O)c32)CC1 [Example 391],1100,72
C[C@H](C1CCCCC1)n1ncc2nc(-n3cc(C(=O)O)cn3)nc(O)c21 [Example 145],1700,30
CC(c1ccc(Cl)c(C(F)(F)F)c1)n1ncc2nc(-n3cc(C(=O)O)cn3)nc(O)c21 (stereo not shown) [Example 315],880,45
CC1(C)CC(n2ncc3nc(-n4cc(C(=O)O)cn4)nc(O)c32)CC(C)(C)C1 [Example 387],780,30
Cc1ccccc1[C@H](C)n1ncc2nc(-n3cc(C(=O)O)cn3)nc(O)c21 [Example 265],780,160
O=C(O)c1cnn(-c2nc(O)c3c(cnn3C3CCC(F)(F)CC3)n2)c1 [Example 392],1300,42
CCC(c1ccc(F)cc1)n1ncc2nc(-n3cc(C(=O)O)cn3)nc(O)c21 (stereo not shown) [Example 324],650,95
CC1CCCC(n2ncc3nc(-n4cc(C(=O)O)cn4)nc(O)c32)C1 (stereo not shown) [Example 398],1400,52
CC[C@@H](c1ccc(C)c(F)c1)n1ncc2nc(-n3cc(C(=O)O)cn3)nc(O)c21 [Example 345],830,53
Cc1nn([C@@H](C)c2cc(F)ccc2F)c2c(O)nc(-n3cc(C(=O)O)cn3)nc12 [Example 453],1500,250
Cc1cc(C(C)n2ncc3nc(-n4cc(C(=O)O)cn4)nc(O)c32)ccc1Cl (stereo not shown) [Example 293],510,61
"CC(C)C(c1cc(F)cc(F)c1)n1ncc2nc(-n3cc(C(=O)O)cn3)nc(O)c21 (single isomer, unassigned) [Example 361]",760,61
Cc1ccc(C)c([C@H](C)n2ncc3nc(-n4cc(C(=O)O)cn4)nc(O)c32)c1 [Example 283],> 3000,68
"Cc1ccc(C(C)n2ncc3nc(-n4cc(C(=O)O)cn4)nc(O)c32)cc1Cl (single isomer, unassigned) [Example 298]",300,29
C[C@@H](c1ccc(F)cc1Cl)n1cc2nc(-n3cc(C(=O)O)cn3)nc(O)c2n1 [Example 505],440,51
Cc1ccc(C(C)n2ncc3nc(-n4cc(C(=O)O)cn4)nc(O)c32)cc1Cl (stereo not shown) [Example 297],660,66
C[C@@H](c1cc(Cl)ccc1F)n1ncc2nc(-n3cc(C(=O)O)cn3)nc(O)c21 [Example 282],1400,77
Cc1nn(CC2CCC(F)(F)CC2)c2c(O)nc(-n3cc(C(=O)O)cn3)nc12 [Example 475],270,34
C[C@H]1CC[C@@H](n2ncc3nc(-n4cc(C(=O)O)cn4)nc(O)c32)CC1 [Example 385],380,130
O=C(O)c1cnn(-c2nc(O)c3c(cnn3C(c3ccc(F)c(Cl)c3)C3CC3)n2)c1 (stereo not shown) [Example 370],380,56
O=C(O)c1cnn(-c2nc(O)c3c(cnn3Cc3ccc(-c4ccccc4C4CC4)cc3)n2)c1 [Example 60],77,28

SMILES,IC50 (human HIF-PHD3) [nM],IC50 (human HIF-PHD2) [nM]
CC1CC(n2ncc3nc(-n4cc(C(=O)O)cn4)nc(O)c32)CC(C)(C)C1 (stereo not shown) [Example 409],420,49
Cc1cc(Cl)ccc1-c1ccc(Cn2ncc3nc(-n4cc(C(=O)O)cn4)nc(O)c32)cc1 [Example 71],110,16
CCC1CCCC(n2ncc3nc(-n4cc(C(=O)O)cn4)nc(O)c32)C1 (stereo not shown) [Example 415],690,40
"CC(C)C(c1cccc(C(F)(F)F)c1)n1ncc2nc(-n3cc(C(=O)O)cn3)nc(O)c21 (single isomer, unassigned) [Example 363]",1300,57
CCCC[C@H](C)n1ncc2nc(-n3cc(C(=O)O)cn3)nc(O)c21 [Example 497],890,52
O=C(O)c1cnn(-c2nc(O)c3c(cnn3C3Cc4ccccc4C3)n2)c1 [Example 395],430,64
O=C(O)c1cnn(-c2nc(O)c3c(cnn3C(c3cc(F)cc(F)c3)C3CC3)n2)c1 (stereo not shown) [Example 372],720,45
O=C(O)c1cnn(-c2nc(O)c3c(cnn3CC3(c4ccccc4)CCCC3)n2)c1 [Example 123],580,130
Cc1ccc2cc(Cn3ncc4nc(-n5cc(C(=O)O)cn5)nc(O)c43)ccc2c1 [Example 33],200,10
O=C(O)c1cnn(-c2nc(O)c3c(n2)c(Cc2ccccc2)nn3CC2CCCCC2)c1 [Example 504],,160
C[C@@H](c1cc(F)ccc1F)n1ncc2nc(-n3cc(C(=O)O)cn3)nc(O)c21 [Example 261],,72
CCC(c1ccc(C)c(Cl)c1)n1ncc2nc(-n3cc(C(=O)O)cn3)nc(O)c21 (stereo not shown) [Example 348],,110
O=C(O)c1cnn(-c2nc(O)c3c(cnn3Cc3ccc(N4CCCC4=O)cc3)n2)c1 [Example 419],,44
C[C@@H](c1ccc(F)cc1F)n1nc(C2CC2)c2nc(-n3cc(C(=O)O)cn3)nc(O)c21 [Example 460],,180
Cc1cc(Cl)cc([C@@H](C)n2ncc3nc(-n4cc(C(=O)O)cn4)nc(O)c32)c1 [Example 266],,73
C[C@@H](c1c(F)cccc1F)n1ncc2nc(-n3cc(C(=O)O)cn3)nc(O)c21 [Example 256],,160
C[C@@H](c1cc(Cl)ccc1Cl)n1ncc2nc(-n3cc(C(=O)O)cn3)[nH]c(=O)c21 [Example 263],610,
O=C(O)c1cnn(-c2nc(O)c3c(cnn3CC3(c4ccccc4)CC3)n2)c1 [Example 122],,74
O=C(O)c1cnn(-c2nc(O)c3c(cnn3CC3CCNCC3)n2)c1 [Example 169],2100,
"CCC(c1cc(C(F)(F)F)cc(C(F)(F)F)c1)n1ncc2nc(-n3cc(C(=O)O)cn3)nc(O)c21 (single isomer, unassigned) [Example 335]",,76
CC(c1cc(Cl)ccc1Cl)n1ncc2nc(-n3cc(C(=O)O)cn3)nc(O)c21 (racemic) [Example 264],490,
